From US7371877B2, “Glycerol ester derivative” (FUJIFILM Corporation, priority 2002, dated 2008)

Experiments:
[1] = J. Med. Chem., 25, 1500 (1982); cited from earlier work
S9 degradation test = assay type: in vitro ADME, rats; details: rat liver S9 Mix, 5 μg/ml, 37° C., HPLC
Experimental: Six-week old male SD rats (Charles River Japan) were purchased and acclimatized for 1 week. After the acclimatization for 1 week, the rats were weighed and bled by decapitation. The liver was extracted and washed three times with chilled 0.15 M KCl. After the washing, wet weight of the liver was determined, and the liver was added with the three-times weight of chilled 0.15 M KCl and placed in a homogenizer. The liver was homogenized, and the homogenate was centrifuged with cooling at 9000 g for 10 minutes. The supernatant obtained was designated S9 and stored below −80° C.
The stored S9 was thawed in running water. The thawed S9 (0.1 ml) was added with 0.4 M MgCl2 (0.02 ml), 1.65 M KCl (0.02 ml) and 0.2 M Na phosphate buffer (pH 7.4, 0.5 ml), added with glucose-6-phosphate (Oriental Yeast), NADPH (Oriental Yeast) and NADH (Oriental Yeast) so as to give a concentration of 4 μM, and added with distilled water to give a total volume of 1 ml (this solution is referred to as “S9 Mix”). S9 Mix (0.1 ml) was added with a test substance so as to give a concentration of 5 μg/ml and shaken at 37° C. under reciprocal movement. The weight of the test substance (unchanged substance) with passage of time in the S9 Mix was measured by HPLC. The test substance was dissolved in dimethyl sulfoxide (Wako Pure Chemical Industry) beforehand. The results are shown as percentage values of the amount of the unchanged substance after 30 minutes based on the amount of the unchanged substance immediately after the addition to S9 Mix, which is taken as 100%. […]

ICR male mice = assay: Toxicity test by continuous administration for three days in mice (MTD); assay type: in vivo
Experimental: Six-week old ICR male mice (Charles River Japan) were purchased, and after quarantine for 1 week, acclimatized in a clean animal cage (air-conditioning: HEPA filter of class 1000, room temperature: 20 to 24° C., humidity: 35 to 60%). Then, in order to obtain an MTD value, a liposome preparation was administered from the caudal vein. The liposome preparation was administered by using physiological saline (Hikari Pharmaceutical) or a glucose solution (Otsuka Pharmaceutical) as a solvent. On the basis of the MTD value obtained, the liposome preparation was administered from the caudal vein every three consecutive days in an amount corresponding to ½ of the MTD value (n=3). The symptoms were observed up to 6 hours after each administration, and autopsy was performed after completion of the administration to examine major organs. As a result, no abnormality was recognized. […]

[2] = test system: vascular smooth muscle cells; assay: Uptake amount of iodine atoms by vascular smooth muscle cells (mixed culture with macrophage); assay type: cell-based; details: liposome PC 50 nmol + PS 50 nmol + compound 75 nmol; cultured at 37° C. under 5% CO2 for 24 hours
Experimental: Dipalmitoyl-PC (Funakoshi, No. 1201-41-0225) and dipalmitoyl-PS (Funakoshi, No. 1201-42-0237) at the ratio shown below were dissolved in chloroform together with each of the iodine compounds of the present invention in an eggplant-shaped flask according to the method described in J. Med. Chem., 25 (12), 1500 (1982) to form a uniform solution. Then, the solvent was evaporated under reduced pressure to form a thin membrane on the bottom of the flask bottom. This thin membrane was dried in vacuum, then added with an appropriate amount of 0.9% physiological saline (Hikari Pharmaceutical, No. 512) and subjected to ultrasonication (No. 3542 probe type oscillator, Branson, 0.1 mW) for 5 minutes to obtain a uniform liposome dispersion. The diameters of the liposomes in the resulting dispersion were measured by using WBC analyzer (A-1042, Nihon Kohden). […] The liposome preparations mentioned below, which were produced by the above method, were each added to a mixed culture system of vascular smooth muscle cells and macrophage described in International Publication WO 01/82977. The cells were cultured at 37° C. under 5% CO2 for 24 hours, and the amounts of the iodine compounds taken up into the vascular smooth muscle cells were each quantified.
In the same manner as in Test Example 1, liposome preparations containing dipalmitoyl-PC (Funakoshi, No. 1201-41-0225) and dipalmitoyl-PS (Funakoshi, No. 1201-42-0237) at the ratio shown below were prepared. […] The liposome preparations produced by the above method were each added to a mixed culture system of vascular smooth muscle cells and macrophage described in International Publication WO 01/82977. The cells were cultured at 37° C. under 5% CO2 for 24 hours, and the amounts of the iodine compounds taken up into the vascular smooth muscle cells were each quantified.

Wistar rats = assay: Neurotoxicity test in Wistar rats; assay type: in vivo; design: key to Neurotoxicity (+: present, −: absent): +: present; −: absent
Experimental: Six-week old male Wistar rats (Charles River Japan) were purchased, and after quarantine for 1 week, acclimatized in a clean animal cage (air-conditioning: HEPA filter of class 1000, room temperature: 20 to 24° C., humidity: 35 to 60%). […]. The liposome preparation was administered by using physiological saline (Hikari Pharmaceutical) or a glucose solution (Otsuka Pharmaceutical) as a solvent.
In the same manner as in Test Example 4, the neurotoxicity test using a Wistar rat was performed.

[3] = test system: arteriosclerotic lesions in rat aortas; assay: X-ray radiography of rat arteriosclerotic lesion; assay type: in vivo; details: liposome preparation, 200 mg/kg from the cervical vein
Experimental: According to the method described in Invest. Radiol., 18, 275 (1985), arteriosclerotic lesions were formed in rat aortas. The liposome preparation of 1A-4-1 prepared above was carefully administered to the rats with the formed arteriosclerotic lesions were formed from the cervical vein in an amount of 200 mg/kg.
In the same manner as in Test Example 2, the liposome preparation of 1B-1-3 prepared above was carefully administered from the cervical vein to the rats with the formed arteriosclerotic lesions in an amount of 200 mg/kg.

[4] = liposome preparation administered from the caudal vein, ICR male mice
[5] = liposome preparation from the caudal vein, 1/2 of the MTD value, after pentobarbital, observed up to 4 hours

| SMILES | amount of the unchanged substance after 30 minutes based on the amount immediately after the addition to S9 Mix (100%) (S9 degradation test) | MTD (ICR male mice; [4]) [mg/kg] | other results |
| --- | --- | --- | --- |
| CCC(Cc1c(I)cc(I)c(N)c1I)C(=O)OC1CCC2(C)C(=CCC3C2CCC2(C)C(C(C)CCCC(C)C)CCC32)C1 (stereo not shown) [Cholesterol iopanoate] | – | – | Accumulation in the liver [1]: known to accumulate in the liver of a living body |
| O=C(CCCCCCCCCCOc1c(I)cc(I)cc1I)OCC(COC(=O)CCCCCCCCCCOc1c(I)cc(I)cc1I)OC(=O)CN1CCOCC1 [Compound 1A-1-3] | 1A-1-3: 63% | 800 | Uptake amount [2]: 49.8 × 10^−3 nmol/μg protein; Neurotoxicity (+: present, −: absent) (Wistar rats; rat, in vivo): (−) |
| O=C(CCCCCCCCCCOc1c(I)cc(I)cc1I)OCC(COC(=O)CCCCCCCCCCOc1c(I)cc(I)cc1I)OC(=O)CCN1CCOCC1 [Compound 1A-3-1] | 1A-3-1: 58% | – | – |
| O=C(CCCCCCCCCCOc1c(I)cc(I)cc1I)OCC(COC(=O)CCCCCCCCCCOc1c(I)cc(I)cc1I)OC(=O)CCCN1CCOCC1 [Compound 1A-3-2] | 1A-3-2: 60% | 800 | – |
| O=C(CCCCCCCCCCOc1c(I)cc(I)cc1I)OCC(COC(=O)CCCCCCCCCCOc1c(I)cc(I)cc1I)OC(=O)CCCCN1CCOCC1 [Compound 1A-3-3] | 1A-3-3: 64% | 1000 | Neurotoxicity (+: present, −: absent) (Wistar rats; rat, in vivo): (−) |
| O=C(CCCCCCCCCCOc1c(I)cc(I)cc1I)OCC(COC(=O)CCCCCCCCCCOc1c(I)cc(I)cc1I)OC(=O)CCCCCN1CCOCC1 [Compound 1A-3-4] | 1A-3-4: 63% | 1000 | – |
| O=C(CCCCCCCCCCOc1c(I)cc(I)cc1I)OCC(COC(=O)CCCCCCCCCCOc1c(I)cc(I)cc1I)OC(=O)CCC(=O)N1CCOCC1 [Compound 1A-4-1] | 1A-4-1: 59% | 1000 | X-ray radiography images of arteriosclerotic lesions ([3]; ten minutes after the administration): clearly contrasted images of the arteriosclerotic lesions were obtained; Uptake amount [2]: 31.4 × 10^−3 nmol/μg protein; Neurotoxicity (+: present, −: absent) (Wistar rats; rat, in vivo): (−) |
| NC(=O)CCC(=O)OC(COC(=O)CCCCCCCCCCOc1c(I)cc(I)cc1I)COC(=O)CCCCCCCCCCOc1c(I)cc(I)cc1I [Compound 1A-4-2] | 1A-4-2: 10% | – | – |
| CN(C)C(=O)CCC(=O)OC(COC(=O)CCCCCCCCCCOc1c(I)cc(I)cc1I)COC(=O)CCCCCCCCCCOc1c(I)cc(I)cc1I [Compound 1A-4-3] | 1A-4-3: 5% | – | – |
| O=C(O)CCC(=O)OC(COC(=O)CCCCCCCCCCOc1c(I)cc(I)cc1I)COC(=O)CCCCCCCCCCOc1c(I)cc(I)cc1I [Compound 1A-4-4] | 1A-4-4: 24% | – | MTD (ICR male mice; mouse, in vivo): 800 mg/kg; Neurotoxicity (+: present, −: absent) (Wistar rats; [5]): (−) |
| CCOCCOCCOCCOC(=O)CCC(=O)OC(COC(=O)CCCCCCCCCCOc1c(I)cc(I)cc1I)COC(=O)CCCCCCCCCCOc1c(I)cc(I)cc1I [Compound 1A-4-5] | 1A-4-5: 38% | – | MTD (ICR male mice; mouse, in vivo): 800 mg/kg; Neurotoxicity (+: present, −: absent) (Wistar rats; [5]): (−) |
| O=C(CCCCCCCCCCOc1c(I)cc(I)cc1I)OCC(COC(=O)CCCCCCCCCCOc1c(I)cc(I)cc1I)OCC(=O)N1CCOCC1 [Compound 1A-5-1] | 1A-5-1: 9% | 800 | Neurotoxicity (+: present, −: absent) (Wistar rats; rat, in vivo): (−) |
| NC(=O)COC(COC(=O)CCCCCCCCCCOc1c(I)cc(I)cc1I)COC(=O)CCCCCCCCCCOc1c(I)cc(I)cc1I [Compound 1A-5-2] | 1A-5-2: 60% | – | – |
| CN(C)C(=O)COC(COC(=O)CCCCCCCCCCOc1c(I)cc(I)cc1I)COC(=O)CCCCCCCCCCOc1c(I)cc(I)cc1I [Compound 1A-5-3] | 1A-5-3: 52% | – | – |
| O=C(O)COC(COC(=O)CCCCCCCCCCOc1c(I)cc(I)cc1I)COC(=O)CCCCCCCCCCOc1c(I)cc(I)cc1I [Compound 1A-5-4] | 1A-5-4: 20% | – | MTD (ICR male mice; mouse, in vivo): 800 mg/kg; Neurotoxicity (+: present, −: absent) (Wistar rats; [5]): (−) |
| CN(C)CC(=O)OC(COC(=O)CCCCCCCCCCOc1c(I)cc(I)cc1I)COC(=O)CCCCCCCCCCOc1c(I)cc(I)cc1I [Compound 1A-6-3] | 1A-6-3: 60% | – | – |
| O=C(CCCCCCCCCCOc1c(I)cc(I)cc1I)OCC(COC(=O)CCCCCCCCCCOc1c(I)cc(I)cc1I)OC(=O)COC(CO)CO [Compound 1A-6-9] | 1A-6-9: 13% | 800 | – |
| CCOCCOCCOCCOC(COC(=O)CCCCCCCCCCOc1c(I)cc(I)cc1I)COC(=O)CCCCCCCCCCOc1c(I)cc(I)cc1I [Compound 1A-7-3] | 1A-7-3: 5% | – | Uptake amount [2]: 41.8 × 10^−3 nmol/μg protein |
| O=C(CCCCCCCCCCOc1c(I)cc(I)cc1I)OCC(COC(=O)CCCCCCCCCCOc1c(I)cc(I)cc1I)OCCO [Compound 1A-7-5] | 1A-7-5: 11% | – | Uptake amount [2]: 36.1 × 10^−3 nmol/μg protein |
| C[N+](C)(C)CCOP(=O)([O-])OC(COC(=O)CCCCCCCCCCOc1c(I)cc(I)cc1I)COC(=O)CCCCCCCCCCOc1c(I)cc(I)cc1I [Compound 1B-1-3] | 1B-1-3: 4% | 2000 | X-ray radiography images of arteriosclerotic lesions ([3]; one minute after the administration): clearly contrasted images of arteriosclerotic lesions were obtained; Uptake amount [2]: 59.8 × 10^−3 nmol/μg protein; Neurotoxicity (Wistar rats; rat, in vivo): no neurotoxicity was observed |
